According to paper PMC12024912, “Druggability Studies of Benzene Sulfonamide Substituted Diarylamide (E3) as a Novel Diuretic” (Biomedicines, 2025):

Key:
UT-B = molecular target: T1, UT-B (Homo sapiens, UniProt Q13336); test: Erythrocyte lysis assay for UT-B inhibition, human erythrocytes; format: cell-based
T1 construct: endogenous in cells; host or cells: erythrocytes from healthy adult male volunteers
T1 sequence (Q13336 1-389): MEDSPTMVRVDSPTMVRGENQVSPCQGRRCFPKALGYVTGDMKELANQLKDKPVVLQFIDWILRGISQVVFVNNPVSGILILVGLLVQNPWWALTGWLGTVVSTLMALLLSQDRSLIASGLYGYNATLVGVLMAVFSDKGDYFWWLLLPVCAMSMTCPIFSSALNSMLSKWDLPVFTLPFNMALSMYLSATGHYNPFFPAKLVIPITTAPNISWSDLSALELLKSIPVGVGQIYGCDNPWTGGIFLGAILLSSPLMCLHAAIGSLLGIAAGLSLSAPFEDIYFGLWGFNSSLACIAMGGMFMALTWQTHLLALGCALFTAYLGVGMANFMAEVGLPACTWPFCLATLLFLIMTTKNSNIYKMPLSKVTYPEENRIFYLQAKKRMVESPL
Protocol: The erythrocyte lysis assay was modified from a method described previously. Erythrocytes obtained from veins were diluted to a hematocrit value of 2% in hyperosmolar PBS containing 1.25 mol/L urea and 5 mmol/L glucose and incubated at r.t. for 2 h. Then, 99 μL erythrocyte suspension from a reservoir was added to each well of a 96-well round-bottom microplate, then 1 μL of the testing compound (500, 125, 31.25, 7.81, 1.95, 0.488, 0.122, 0.031, 0.0076 μmol/L dissolved in DMSO) was added to erythrocyte suspension and shook it up with microoscillator for 1 min. Following 5 min incubation, 20 μL erythrocyte suspension was transferred into 96-well black microplates preloaded with 180 μL isotonic PBS (10 mM, urea-free). Erythrocyte lysis was monitored at 710 nm optical density (OD710) for 6 min, with lysis rates calculated using control values from the same plate as Equation (1):Lysis (%) = 100 × (Aneg − Atest)/(Aneg − Apos)(1) where Atest is the absorbance value from the test well, Aneg is from a negative no-lysis control well, and Apos is from a positive full-lysis control.

mice = test: Long-term (7 d) diuretic activity in mice; format: in vivo, mouse
Protocol: In a single-dose administration experiment, male wild-type (WT) mice, UT-B^-/- mice, UT-A1^-/- mice, or SD rats were adapted in metabolic cages for 3 d. Food and water were provided ad libitum throughout the experiment. Prior to administration, the bladder of each animal was emptied through gentle abdominal massage, and urine was collected from the metabolic cages every 2 h. Compound E3, suspended in 0.5% CMC-Na at an appropriate concentration, was administered intragastric gavage to the mice or rats (0.16, 0.8, 4, or 20 mg/kg). Vehicle control comprised 0.5% (w/v) CMC-Na. Urinary parameters were determined through the following: volume: Gravimetric analysis (1 g/mL density assumption); osmolality: freezing-point osmometry (Micro-osmometer, […] Associates, Norwood, MA, USA); and urea: diacetyl oxime colorimetry (QuantiChrom® kit, Elabscience, Wuhan, China). In long-term (7 d) diuretic activity experiments, male WT mice, UT-B^-/- mice, UT-A1^-/- mice, and SD rats were acclimatized in metabolic cages (Ugo Basile, Comerio, VA, Italy) for 3 d. Food and water were provided ad libitum throughout the experiment. E3 was suspended in 0.5% CMC-Na and administered at a dose of 4 or 20 mg/kg by intragastric gavage. Urine was collected by metabolic cages every 24 h. Body weight was measured daily. At 4 h after the final administration, a blood sample was obtained by heart puncture. Inner medulla and outer medulla tissue homogenates were prepared, and the supernatant after centrifugation was analyzed for solute concentration and osmolality. Urinary osmolality and urea concentration were measured as above. Serum Na^+, K^+, and Cl^- were measured in a clinical chemistry laboratory, while serum creatinine, ALT, and AST were measured through specific reagent kits (NJJC Bio, Nanjing, China).

[1] = UT-B−/− mice, long-term treatment
[2] = mice, oral 20 mg/kg, consecutive administrations

CC(=O)c1ccc(C(=O)Nc2cccc(NS(=O)(=O)c3ccccc3)c2)o1 [Compound E3, 5-acetyl-N-(3-(phenylsulfonamido)phenyl)furan-2-carboxamide]
maximum inhibition rate, human cells (UT-B; erythrocyte lysis assay): approximately 100% | IC50 (UT-B; red blood cell lysis assay, read-out: IC50 for UT-B-promoted urea transport, humans): 25 nM | diuretic effect (mice; UT-A1−/− mice, long-term treatment): no significant diuretic effect | urine osmolality (mice; [1]): decreased | urine output (mice; [1]): increased | excretion of non-urea solutes (mice; [2]): no significant difference | urine osmolality (mice; [2]): significantly decreased | urine output (mice; [2]): significantly increased | urine urea concentration (mice; [2]): significantly decreased
